Assay results reported in patent US4370337A, “1,2,4-Triazole derivatives as antifertility agents and pharmaceutical compositions containing them” (Gruppo Lepetit S.p.A., priority 1980, dated 1983).

What was measured:
[1] = test system: female Syrian golden hamsters; test: Post-coital antifertility activity in mated hamsters, subcutaneous (autopsy on day 14: implantation sites, live fetuses); type: in vivo, Syrian golden hamster; conditions: for ED50: Mesocricetus auratus, sc, s.c. hamsters, days 4-8 of pregnancy, read-out: ED50 (100% activity, i.e. absence of live fetuses, in 50% of the animals); for antifertility activity (active according to the criteria): s.c. in sesame oil, 10 mg/kg daily for 5 days (days 4-8 of pregnancy), hamsters
Experimental: (§1) Representative experiments for assessing antifertility activity were carried out with female Syrian golden hamsters weighing 100 to 130 g. The animals were mated and the presence of sperm in the vagina was taken as evidence of mating. The day sperm was detected was considered day one of pregnancy, since in our laboratory and those of other investigators 90 to 100% of animals that mate as evidenced by vaginal sperm are pregnant.
(§2) Pregnancy was later confirmed at the time of autopsy by presence of fetuses or implantation sites in the uterus.
(§3) Even if an animal aborts the fetus, implantation scars still remain as evidence that the animal has been pregnant.
The animals were autopsied on day 14 of pregnancy and the uteri were examined for evidence of pregnancy (implantation sites, fetal resorptions or live fetuses), hemorrage, and evidence of abnormalities of the uterus, placenta or fetuses.

[2] = test system: hamsters; test: Post-coital antifertility activity in mated hamsters, oral route; type: in vivo, Syrian golden hamster; conditions: for reduction of live fetuses: oral, 20 mg/Kg, hamsters
Experimental: as §1, §2, §3
The animals were autopsied on day 14 of pregnancy and the uteri were examined for evidence of pregnancy (implantation sites, fetal resorptions or live fetuses), hemorrage, and evidence of abnormalities of the uterus, placenta or fetuses. A compound was considered to be active if there was a reduction of live fetuses in at least 60% of the treated animals and the presence of implantation sites proves the animal to have been pregnant. […] The compounds were then studied for dose-activity relationships and the corresponding ED50 values i.e., 100% activity (absence of live fetuses) in 50% of the animals, were also determined. The following table reports the ED50 values of some representative compounds of the invention:
Favorable results were also obtained by administering the compounds of the invention by oral route. The experiments for assessing this property were carried out on hamsters following the same procedure as above, with the obvious exception that the compounds were adminstered orally instead of subcutaneously.

Row | Compound | ED50 [1] [mg/kg] | antifertility activity (active according to the criteria) [1] | ED50 ([2]; Mesocricetus auratus, po, p.o. hamsters, read-out: ED50 (100% activity, i.e. absence of live fetuses, in 50% of the animals)) [mg/kg] | reduction of live fetuses [2] [%]
1 | COc1cccc(-c2n[nH]c(-c3ccccc3CO)n2)c1 [Example 1, 5-(2-hydroxymethylphenyl)-3-(3-methoxyphenyl)-1H-,1,2,4-triazole] | 0.08 | active | 10 | 60
2 | COc1cccc(-c2nc(-c3ccccc3C=O)n[nH]2)c1 [Example 3, 2-[5-(3-methoxyphenyl)-1H-1,2,4-triazol-3yl]benzaldehyde] | 0.1 | active | – | 60
